Reference: ChEMBL document CHEMBL5512605, “Targeted regulated cell death with small molecule compounds in colorectal cancer: Current perspectives of targeted therapy and molecular mechanisms” (Eur J Med Chem, 2024)
Blank lines part the entries; values can stand above or below the compound they belong to.

Assays:
HCT-116 [1] = assay: Cytotoxicity against human HCT-116 cells assessed as inhibition of cell proliferation measured after 48 hrs by MTT assay; type: functional, cell-based; conditions: HCT-116, 48 h
RKO = assay: Cytotoxicity against human RKO cells assessed as inhibition of cell proliferation measured after 48 hrs by MTT assay; type: functional, cell-based
SW480 [2] = assay: Cytotoxicity against human SW480 cells assessed as inhibition of cell proliferation measured after 48 hrs by MTT assay; type: functional, cell-based
HCT-116 [3] = assay: Antiproliferative activity against human HCT-116 cells assessed as inhibition of cell growth measured upto 72 hrs by CCK-8 method; type: functional, cell-based; conditions: HCT-116, 72 h
HCT-116 [4] = assay: Antiproliferative activity against human HCT-116 cells measured after 48 hrs by MTT assay; type: functional, cell-based; conditions: HCT-116, 48 h
HCT-8 = assay: Antiproliferative activity against human HCT-8 cells measured after 48 hrs by MTT assay; type: functional, cell-based; conditions: HCT-8, 48 h
LoVo = assay: Antiproliferative activity against human LoVo cells measured after 48 hrs by MTT assay; type: functional, cell-based
HCT-116 [5] = assay: Antiproliferative activity against human HCT-116 cells assessed as inhibition of cell growth; type: functional, cell-based
SW-620 [6] = assay: Antiproliferative activity against human SW620 cells assessed as inhibition of cell growth; type: functional, cell-based
SW-620 [7] = assay: Cytotoxicity against human SW620 cells assessed as inhibition of cell proliferation measured after 48 hrs by MTT assay; type: functional, cell-based; conditions: SW-620, 48 h
SW837 = assay: Antiproliferative activity against human SW837 cells; type: functional
HCT-116 [8] = assay: Antiproliferative activity against human HCT-116 cells assessed as inhibition of cell viability measured after 24 hrs by CCK-8 method; type: functional, cell-based; conditions: HCT-116, 24 h
HT-29 [9] = assay: Antiproliferative activity against human HT-29 cells assessed as inhibition of cell viability measured after 24 hrs by CCK-8 method; type: functional, cell-based; conditions: HT-29, 24 h
SW480 [10] = assay: Antiproliferative activity against human SW480 cells; type: functional, cell-based; conditions: Homo sapiens, SW480
HCT-116 [11] = assay: Antiproliferative activity against human HCT-116 cells; type: functional, cell-based; conditions: Homo sapiens, HCT-116
HT-29 [12] = assay: Antiproliferative activity against human HT-29 cells measured after 72 hrs by SRB method; type: functional, cell-based; conditions: HT-29, 72 h
HCT-116 [13] = assay: Antiproliferative activity against human HCT-116 cells measured after 72 hrs by SRB method; type: functional, cell-based; conditions: HCT-116, 72 h
HCT-116 [14] = assay: Cytotoxicity against human HCT-116 cells measured after 48 hrs by MTT colorimetric assay; type: functional, cell-based; conditions: HCT-116, 48 h
SW480 [15] = assay: Antiproliferative activity against human SW480 cells assessed as inhibition of cell growth incubated for 24 hrs by CCK-8 method; type: functional, cell-based; conditions: SW480, 24 h
HT-29 [16] = assay: Antiproliferative activity against human HT-29 cells assessed as inhibition of cell viability incubated for 24 hrs by CCK-8 method; type: functional, cell-based; conditions: HT-29, 24 h
COLO 320 = assay: Antiproliferative activity in human COLO 320 cells incubated for 24 hrs by MTT assay; type: functional
Caco-2 = assay: Antiproliferative activity against human Caco-2 cells measured after 24 hrs by MTT assay; type: functional, cell-based; conditions: Caco-2, 24 h
SW-620 [17] = assay: Antiproliferative activity against human SW620 cells; type: functional, cell-based
HCT-116 [18] = assay: Cytotoxicity against human HCT-116 cells assessed as inhibition of cell proliferation measured after 72 hrs by SRB method; type: functional, cell-based
DLD-1 = assay: Antiproliferative activity against human DLD-1 cells assessed as inhibition of cell viability by CCK-8 method; type: functional, cell-based
HCT-116 [19] = assay: Antiproliferative activity against human HCT-116 cells assessed as inhibition of cell viability by CCK-8 method; type: functional, cell-based
SW480 [20] = assay: Antiproliferative activity against human SW480 cells incubated for 24 hrs by CCK-8 method; type: functional, cell-based
SW 1116 = assay: Antiproliferative activity against human SW 1116 cells incubated for 24 hrs by CCK-8 method; type: functional, cell-based

Compound: C[C@@H]1CC[C@@]2(OC1)O[C@H]1C[C@H]3[C@@H]4CC=C5C[C@H](O[C@@H]6O[C@H](CO)[C@@H](O)[C@H](O[C@@H]7O[C@H](CO)[C@@H](O)[C@H](O)[C@H]7O)[C@H]6O[C@@H]6O[C@@H](C)[C@H](O)[C@@H](O)[C@H]6O)CC[C@]5(C)[C@H]4CC[C@]3(C)[C@H]1[C@@H]2C
- IC50 (HCT-116 [1]): 5.47 µM
- IC50 (RKO): 3.12 µM
- IC50 (SW480 [2]; Homo sapiens, SW480, 48 h): 2.67 µM

- IC50 (HCT-116 [3]): 8000 µM
Compound: CC(=O)Oc1ccccc1C(=O)O [ASPIRIN]

- IC50 (HCT-116 [4]): 0.029 µM
- IC50 (HCT-8): 0.532 µM
- IC50 (LoVo): 0.063 µM
Compound: CO[C@H]1C(=O)[C@]2(C)[C@@H](OC)C[C@H]3OC[C@@]3(OC(C)=O)[C@H]2[C@H](OC(=O)c2ccccc2)[C@]2(O)C[C@H](OC(=O)[C@H](O)[C@@H](NC(=O)OC(C)(C)C)c3ccccc3)C(C)=C1C2(C)C [CABAZITAXEL]

Compound: CC1=C(O)C(=O)C=C2C1=CC=C1[C@@]2(C)CC[C@@]2(C)[C@@H]3C[C@](C)(C(=O)O)CC[C@]3(C)CC[C@]12C [CELASTROL]
- IC50 (HCT-116 [5]): 0.29 µM
- IC50 (SW-620 [6]): 0.29 µM

Compound: CC(=O)O[C@H]1[C@H]2O[C@]23[C@@H]2CC[C@@H]4C[C@@H](O)CC[C@]4(C)[C@H]2CC[C@]3(C)[C@H]1c1ccc(=O)oc1 [CINOBUFAGIN]
- IC50 (SW-620 [7]): 0.364 µM
- IC50 (HCT-116 [1]): 0.782 µM
- IC50 (RKO): 0.182 µM

Compound: Cc1ncsc1-c1ccc([C@H](C)NC(=O)[C@@H]2C[C@@H](O)CN2C(=O)[C@@H](NC(=O)CCCCCC(=O)N2CCN(CC[C@H](CSc3ccccc3)Nc3ccc(S(=O)(=O)NC(=O)c4ccc(N5CCN(CC6=C(c7ccc(Cl)cc7)CCC(C)(C)C6)CC5)cc4)cc3S(=O)(=O)C(F)(F)F)CC2)C(C)(C)C)cc1 [DT-2216]
- IC (SW837): 1 µM

- IC50 (HCT-116 [8]): 29.8 µM
- IC50 (HT-29 [9]): 37.2 µM
Compound: O=c1cc(-c2ccc(O)cc2)oc2cc(O)c([C@@H]3O[C@H](CO)[C@@H](O)[C@H](O)[C@H]3O)c(O)c12 [ISOVITEXIN]

- IC50 (SW480 [10]): 5 µM
- IC50 (HCT-116 [11]): 5 µM
Compound: COc1ccc(-c2cc(=O)c3c(O)c(OC)c(O)c(OC)c3o2)cc1 [NEVADENSIN]

- IC50 (HT-29 [12]): 4.66 µM
- IC50 (HCT-116 [13]): 0.32 µM
Compound: O=C(Nc1ccc([N+](=O)[O-])cc1Cl)c1cc(Cl)ccc1O [NICLOSAMIDE]

Compound: CC(=O)Oc1ccccc1C(=O)Nc1ncc([N+](=O)[O-])s1 [NITAZOXANIDE]
- IC50 (HCT-116 [14]): 11.2 µM

- IC50 (SW480 [15]): 33 µM
- IC50 (HT-29 [16]): 27.3 µM
Compound: CC(CN1c2ccccc2Sc2ccccc21)N(C)C (configuration not stated) [PROMETHAZINE]

Compound: CC(C)c1cccc(C(C)C)c1O [PROPOFOL]
- IC (SW480 [2]; time 48 hrs): 12.5 µM

Compound: O=c1c(O)c(-c2ccc(O)c(O)c2)oc2cc(O)cc(O)c12 [QUERCETIN]
- IC (COLO 320): 50 µM

Compound: CC[C@@H](C(=O)[C@@H](C)[C@@H](O)[C@H](C)[C@@H]1O[C@@H]([C@@H](CC)C(=O)O)CC[C@@H]1C)[C@H]1O[C@]2(C=C[C@@H](O)[C@]3(CC[C@@](C)([C@H]4CC[C@](O)(CC)[C@H](C)O4)O3)O2)[C@H](C)C[C@@H]1C [SALINOMYCIN]
- IC50 (Caco-2): 15.7 µM

Compound: C[S+]([O-])CCCCN=C=S (configuration not stated) [SULFORAPHANE]
- IC50 (Caco-2): 55.3 µM

- IC50 (SW-620 [17]): 2.45 µM
Compound: CC(/C=C/C(=O)NO)=C\[C@@H](C)C(=O)c1ccc(N(C)C)cc1 [TRICHOSTATIN]

Compound: C/C=C\C(=O)O[C@@H]1C[C@H]2O[C@@H]3C=C(C)C(=O)C[C@]3(C)[C@]1(C)[C@]21CO1 [TRICHOTHECIN]
- IC50 (HCT-116 [18]): 0.25 µM

Compound: CETUXIMAB
- IC (DLD-1): 100 µM
- IC (HCT-116 [19]): 100 µM

- IC50 (SW480 [20]): 15.3 µM
Compound: IVERMECTIN
- IC50 (SW 1116): 6.27 µM
